Source: the kinase profiling compilation of Christmann-Franck et al. (2016)
Where “and” joins values, the source holds several entries; their conditions need not be identical. Equal entries are not always repeated.

Columns and labels:
Experiment in all cases: KINOMEscan competition binding
Conditions in all cases: compound 1.0 µM
[1] = target: EPHB2 (human) (UniProt P29323)
[2] = target: TYK2 JH1 catalytic (human) (UniProt P29597)
[3] = target: NEK9 (human) (UniProt Q8TD19)
[4] = target: RET (human) (UniProt P07949)
[5] = target: CDK2 (human) (UniProt P24941)
[6] = target: WEE1 (human) (UniProt P30291)
[7] = target: HIPK4 (human) (UniProt Q8NE63)
Sequence of HIPK4 (human) (Q8NE63 whole entry, looked up): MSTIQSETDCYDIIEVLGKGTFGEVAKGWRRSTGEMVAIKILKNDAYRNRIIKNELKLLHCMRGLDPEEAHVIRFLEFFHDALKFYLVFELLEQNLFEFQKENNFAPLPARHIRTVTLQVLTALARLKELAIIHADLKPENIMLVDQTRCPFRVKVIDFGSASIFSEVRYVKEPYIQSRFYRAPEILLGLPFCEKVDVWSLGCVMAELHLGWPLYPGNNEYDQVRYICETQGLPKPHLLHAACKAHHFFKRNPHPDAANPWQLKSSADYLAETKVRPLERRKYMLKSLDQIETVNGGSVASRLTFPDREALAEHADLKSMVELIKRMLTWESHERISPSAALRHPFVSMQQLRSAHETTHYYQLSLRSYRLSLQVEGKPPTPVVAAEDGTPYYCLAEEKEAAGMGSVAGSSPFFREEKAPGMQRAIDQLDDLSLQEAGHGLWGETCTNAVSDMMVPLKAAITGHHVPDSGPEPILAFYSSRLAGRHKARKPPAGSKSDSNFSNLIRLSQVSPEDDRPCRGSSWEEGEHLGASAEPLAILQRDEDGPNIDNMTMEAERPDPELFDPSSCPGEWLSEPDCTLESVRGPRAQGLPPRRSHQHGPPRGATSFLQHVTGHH

[8] = tested on: KIT (human), P10721 [V559D/T670I]
Sequence of KIT (human), P10721 [V559D/T670I] (P10721 whole entry V559D/T670I, looked up): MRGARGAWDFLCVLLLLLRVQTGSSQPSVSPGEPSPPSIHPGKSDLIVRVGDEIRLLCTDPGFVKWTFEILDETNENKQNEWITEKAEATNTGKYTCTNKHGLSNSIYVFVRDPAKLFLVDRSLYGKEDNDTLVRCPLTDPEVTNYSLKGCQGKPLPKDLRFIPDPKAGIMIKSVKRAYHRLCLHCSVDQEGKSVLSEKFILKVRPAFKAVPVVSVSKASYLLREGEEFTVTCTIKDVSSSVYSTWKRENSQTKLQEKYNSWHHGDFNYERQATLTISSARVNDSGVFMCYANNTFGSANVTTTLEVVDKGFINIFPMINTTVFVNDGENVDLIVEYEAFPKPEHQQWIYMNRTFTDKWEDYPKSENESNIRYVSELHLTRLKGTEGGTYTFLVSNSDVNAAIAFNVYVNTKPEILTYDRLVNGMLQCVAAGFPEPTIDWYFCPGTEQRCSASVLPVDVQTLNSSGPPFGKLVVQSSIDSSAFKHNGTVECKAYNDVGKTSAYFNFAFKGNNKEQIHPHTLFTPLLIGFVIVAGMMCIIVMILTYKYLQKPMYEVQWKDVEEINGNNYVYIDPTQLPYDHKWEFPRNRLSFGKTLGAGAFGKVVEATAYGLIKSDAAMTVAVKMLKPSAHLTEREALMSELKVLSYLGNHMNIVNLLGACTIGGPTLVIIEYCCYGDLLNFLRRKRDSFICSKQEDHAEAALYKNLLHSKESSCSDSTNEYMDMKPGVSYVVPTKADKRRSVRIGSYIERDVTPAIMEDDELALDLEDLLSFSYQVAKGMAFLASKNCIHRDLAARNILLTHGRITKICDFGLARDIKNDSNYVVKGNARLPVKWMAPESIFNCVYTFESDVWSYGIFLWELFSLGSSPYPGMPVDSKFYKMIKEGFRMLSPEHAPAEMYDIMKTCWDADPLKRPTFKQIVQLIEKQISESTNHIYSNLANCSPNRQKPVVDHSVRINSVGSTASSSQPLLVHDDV

[9] = target: LIMK2 (human) (UniProt P53671)
[10] = target: CDKL3 (human) (UniProt Q8IVW4)
[11] = tested on: FGFR3 (human), P22607 [G697C]
[12] = target: LYN (human) (UniProt P07948)
[13] = target: PKN2 (human) (UniProt Q16513)
[14] = target: MLTK (human) (UniProt Q9NYL2)
[15] = target: SRPK1 (human) (UniProt Q96SB4)
[16] = target: SRMS (human) (UniProt Q9H3Y6)
[17] = target: FLT3 (human) (UniProt P36888)
[18] = target: IGF1R (human) (UniProt P08069)
[19] = tested on: KIT (human), P10721 [L576P]
Sequence of KIT (human), P10721 [L576P] (P10721 whole entry L576P, looked up): as the sequence (P10721 whole entry V559D/T670I, looked up) above, with D559V, L576P, I670T counted along it

[20] = target: CLK3 (human) (UniProt P49761)
[21] = target: TNK1 (human) (UniProt Q13470)
[22] = target: FES (human) (UniProt P07332)
[23] = target: NIM1 (human) (UniProt Q8IY84)
Sequence of NIM1 (human) (Q8IY84 whole entry, looked up): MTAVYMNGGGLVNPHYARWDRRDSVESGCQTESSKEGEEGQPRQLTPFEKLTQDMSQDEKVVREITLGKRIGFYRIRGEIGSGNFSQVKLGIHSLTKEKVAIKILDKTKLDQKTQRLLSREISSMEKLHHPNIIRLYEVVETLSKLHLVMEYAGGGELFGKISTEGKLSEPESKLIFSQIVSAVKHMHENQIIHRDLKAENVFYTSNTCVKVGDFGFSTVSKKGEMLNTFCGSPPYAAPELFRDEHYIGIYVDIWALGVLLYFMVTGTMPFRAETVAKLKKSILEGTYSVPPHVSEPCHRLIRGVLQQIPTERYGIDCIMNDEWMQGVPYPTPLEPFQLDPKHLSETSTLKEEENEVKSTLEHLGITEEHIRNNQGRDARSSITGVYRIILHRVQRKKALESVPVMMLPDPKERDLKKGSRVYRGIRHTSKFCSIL

[24] = target: MAP3K13 (human) (UniProt O43283)
[25] = target: GSK3B (human) (UniProt P49841)
[26] = target: CSF1R (human) (UniProt P07333)
[27] = target: EGFR (human) (UniProt P00533)
[28] = target: HCK (human) (UniProt P08631)
[29] = target: PAK6 (human) (UniProt Q9NQU5)
[30] = target: TEK (human) (UniProt Q02763)
[31] = target: ADCK3 (human) (UniProt Q8NI60)
[32] = target: PDGFRB (human) (UniProt P09619)
[33] = target: MAPK14 (human) (UniProt Q16539)
[34] = target: RPS6KA2 KD1 (human) (UniProt Q15349)
Sequence of RPS6KA2 KD1 (human) (Q15349 whole entry, looked up): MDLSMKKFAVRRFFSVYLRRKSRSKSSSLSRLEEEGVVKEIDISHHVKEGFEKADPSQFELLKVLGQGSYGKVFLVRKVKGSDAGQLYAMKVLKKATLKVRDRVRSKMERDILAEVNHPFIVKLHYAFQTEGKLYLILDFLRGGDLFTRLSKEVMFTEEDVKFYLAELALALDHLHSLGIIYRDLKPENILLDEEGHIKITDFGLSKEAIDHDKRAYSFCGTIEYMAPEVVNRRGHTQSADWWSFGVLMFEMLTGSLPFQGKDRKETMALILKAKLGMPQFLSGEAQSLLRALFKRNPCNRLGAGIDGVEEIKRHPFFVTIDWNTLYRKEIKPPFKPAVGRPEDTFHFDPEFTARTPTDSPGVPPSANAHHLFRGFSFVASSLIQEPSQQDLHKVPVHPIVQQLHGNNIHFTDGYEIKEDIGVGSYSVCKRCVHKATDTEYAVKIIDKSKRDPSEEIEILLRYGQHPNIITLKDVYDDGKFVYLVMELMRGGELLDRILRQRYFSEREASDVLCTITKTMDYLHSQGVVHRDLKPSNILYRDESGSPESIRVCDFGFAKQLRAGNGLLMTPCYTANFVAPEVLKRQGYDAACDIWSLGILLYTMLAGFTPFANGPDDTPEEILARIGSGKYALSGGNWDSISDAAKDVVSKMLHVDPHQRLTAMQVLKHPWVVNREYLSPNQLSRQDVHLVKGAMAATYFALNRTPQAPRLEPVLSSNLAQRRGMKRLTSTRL

[35] = target: MERTK (human) (UniProt Q12866)
Sequence of MERTK (human) (Q12866 whole entry, looked up): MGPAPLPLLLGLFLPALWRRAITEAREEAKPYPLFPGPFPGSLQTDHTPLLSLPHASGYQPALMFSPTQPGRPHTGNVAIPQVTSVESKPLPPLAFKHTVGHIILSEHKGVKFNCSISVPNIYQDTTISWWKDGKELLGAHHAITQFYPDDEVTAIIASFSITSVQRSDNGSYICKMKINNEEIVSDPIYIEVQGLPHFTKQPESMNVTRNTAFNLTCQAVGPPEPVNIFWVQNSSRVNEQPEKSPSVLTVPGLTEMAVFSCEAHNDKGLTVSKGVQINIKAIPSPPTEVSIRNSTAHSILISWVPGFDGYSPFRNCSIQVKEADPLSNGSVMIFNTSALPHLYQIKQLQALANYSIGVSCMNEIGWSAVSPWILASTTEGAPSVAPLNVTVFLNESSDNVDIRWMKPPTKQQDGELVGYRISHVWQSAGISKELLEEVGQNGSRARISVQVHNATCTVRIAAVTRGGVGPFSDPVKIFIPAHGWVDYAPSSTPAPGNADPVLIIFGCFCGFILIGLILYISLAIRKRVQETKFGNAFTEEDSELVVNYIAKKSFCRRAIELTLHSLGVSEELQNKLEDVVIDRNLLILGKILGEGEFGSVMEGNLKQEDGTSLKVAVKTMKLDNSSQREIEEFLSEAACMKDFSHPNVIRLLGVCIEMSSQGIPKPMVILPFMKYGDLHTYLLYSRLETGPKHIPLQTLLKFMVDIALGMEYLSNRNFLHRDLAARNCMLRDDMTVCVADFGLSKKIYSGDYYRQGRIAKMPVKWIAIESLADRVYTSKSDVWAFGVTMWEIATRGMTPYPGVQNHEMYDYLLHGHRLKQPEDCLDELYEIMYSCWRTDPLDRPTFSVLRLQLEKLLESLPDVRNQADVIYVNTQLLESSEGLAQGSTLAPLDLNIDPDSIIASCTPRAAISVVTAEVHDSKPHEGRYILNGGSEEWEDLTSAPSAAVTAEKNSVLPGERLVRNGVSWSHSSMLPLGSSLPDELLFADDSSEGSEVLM

[36] = target: RIPK2 (human) (UniProt O43353)
[37] = target: PRKACA (human) (UniProt P17612)
[38] = target: CAMKK1 (human) (UniProt Q8N5S9)
[39] = target: PAK7 (human) (UniProt Q9P286)
[40] = target: TAOK1 (human) (UniProt Q7L7X3)
Sequence of TAOK1 (human) (Q7L7X3 whole entry, looked up): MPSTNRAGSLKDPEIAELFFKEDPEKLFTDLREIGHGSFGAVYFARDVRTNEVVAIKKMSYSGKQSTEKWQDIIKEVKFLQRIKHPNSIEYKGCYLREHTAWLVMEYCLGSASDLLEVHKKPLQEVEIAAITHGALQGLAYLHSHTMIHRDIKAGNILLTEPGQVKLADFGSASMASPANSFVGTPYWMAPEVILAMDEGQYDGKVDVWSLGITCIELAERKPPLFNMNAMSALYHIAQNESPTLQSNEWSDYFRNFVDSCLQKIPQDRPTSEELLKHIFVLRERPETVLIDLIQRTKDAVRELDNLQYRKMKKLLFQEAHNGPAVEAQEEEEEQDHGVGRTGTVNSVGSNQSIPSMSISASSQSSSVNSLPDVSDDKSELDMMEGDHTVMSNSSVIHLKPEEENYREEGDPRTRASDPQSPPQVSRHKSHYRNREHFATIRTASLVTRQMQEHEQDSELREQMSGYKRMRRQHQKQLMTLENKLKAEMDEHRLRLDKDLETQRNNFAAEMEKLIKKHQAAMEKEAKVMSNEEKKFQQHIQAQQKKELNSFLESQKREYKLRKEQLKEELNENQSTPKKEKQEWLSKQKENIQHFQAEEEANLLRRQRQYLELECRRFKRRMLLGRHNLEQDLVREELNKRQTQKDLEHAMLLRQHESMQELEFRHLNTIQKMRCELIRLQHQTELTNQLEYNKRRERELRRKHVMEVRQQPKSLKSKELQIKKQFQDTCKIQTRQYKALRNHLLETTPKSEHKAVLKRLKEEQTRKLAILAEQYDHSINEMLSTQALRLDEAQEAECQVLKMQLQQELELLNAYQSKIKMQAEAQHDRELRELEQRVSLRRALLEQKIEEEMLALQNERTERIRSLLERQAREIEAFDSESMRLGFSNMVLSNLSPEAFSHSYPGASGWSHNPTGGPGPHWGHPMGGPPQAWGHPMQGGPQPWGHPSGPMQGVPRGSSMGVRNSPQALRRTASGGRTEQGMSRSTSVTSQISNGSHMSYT

inhibition of binding [1]: 0% | inhibition of binding [2]: 0% | inhibition of binding [4]: 8% | inhibition of binding [5]: 30% | inhibition of binding [6]: 2% | inhibition of binding [7]: 21% | inhibition of binding [8]: 0% | inhibition of binding [9]: 0% | inhibition of binding [10]: 0% | inhibition of binding [11]: 0% | inhibition of binding [12]: 0% | inhibition of binding [13]: 0% | inhibition of binding [14]: 0% | inhibition of binding [15]: 0% | inhibition of binding [16]: 0% | inhibition of binding [17]: 8% | inhibition of binding [18]: 0% | inhibition of binding [19]: 0% | inhibition of binding [20]: 29% | inhibition of binding [21]: 10% | inhibition of binding [22]: 0% | inhibition of binding [23]: 0% | inhibition of binding [24]: 0% | inhibition of binding [25]: 0% | inhibition of binding [26]: 0% | inhibition of binding [27]: 10% | inhibition of binding [28]: 0% | inhibition of binding [29]: 16% | inhibition of binding [30]: 0% | inhibition of binding [31]: 4% | inhibition of binding [32]: 0% | inhibition of binding [33]: 0% | inhibition of binding [34]: 2% | inhibition of binding [35]: 0% | inhibition of binding [36]: 0% | inhibition of binding [37]: 0% | inhibition of binding [38]: 0% | inhibition of binding [39]: 0% | inhibition of binding [40]: 0% and 2%
Compound: Nc1cc(C(F)(F)F)c(-c2cc(N3CCOCC3)nc(N3CCOCC3)n2)cn1
inhibition of binding [3]: 0%
